Where two headings read alike, the source gives them in different places.

For data set [1] the following is noted: concentration in the formulation increased to 1%.
The format of data set [2] is physicochemical. As to conditions: for Evaluation results: 0.5% by weight in purified water, defoaming time; for Remaining rate: buffer. As to the method: The ascorbic acid derivatives of APS, APPS, EPC, and AA were dissolved in purified water at a concentration of 0.5% by weight, and the time to defoam the bubbles was measured with a sponge under the same conditions. The results are shown in Table 14, where the defoaming time of the APPS with the longest defoaming time was set to 100% and the defoaming time of each was calculated as a percentage, with 90% or more being considered O (best), 80% or more to 90% or less being considered B (good), and 80% or less being considered X (poor). Description of abbreviations: ascorbic acid-2-phosphateNa:APS, ascorbic acid-2-phosphate-6-palmitate3Na:APPS, ascorbic acid-2-tocopheryl potassium:EPC, ascorbic acid:AA.

The subject of data set [3] is normal human epidermal fibroblasts. Description: cell uptake of rhodamine B from carriers without stimulus-responsive polymers. It counts as cell-based. As to conditions: EPC set at 100%; carrier without stimulus-responsive polymers; vitamin derivative 200 μM; 37° C. 1 hour. As to the method: Create a Delivery carrier into cell in a comparison experiment To investigate the effects of vitamin derivatives with different ATG-CTS activities on cell uptake, the following experiments were performed on delivery carrier into the cell without stimulus-responsive polymers. Six g of glycerin, 1 g of sodium cocoyl glutamate, and 1 g each of three vitamin derivatives (PA, APPS, and EPC) with different ATG-CTS activities were mixed with an electric hand mixer, and 0.1 g of rhodamine B, a fluorescent dye, was added to 20 g of jojoba oil and stirred for 20 minutes. To this, PBS was added to 100 g and stirred for 10 minutes with an electric hand mixer to prevent foaming. 3 types of cell carriers were obtained by completely dispersing them. A Delivery carrier into cell of vitamin derivative-free was also created using the same method as an additive-free control.
Normal human epidermal fibroblasts were incubated in DMEM (low glucose) containing 5% FBS at a density of 5×10^5 cell/well at 37° C. for 24 hours in 6-well plates, and then the medium containing the three delivery carrier into the cell of the invention (final concentration of PA, APPS, and EPC was added to 200 μM each) was replaced with the medium prepared as described above and incubated at 37° C. for 1 hour. Then, the cell were washed five times with PBS and immobilized with 4% paraformaldehyde phosphate buffer solution for 20 min, washed twice with PBS again, and the relative concentration of the fluorescent material taken up into the cell was determined by measuring the fluorescence intensity at the excitation wavelength of 555 (nm) and the fluorescence wavelength of 580 (nm) with a fluorescent microplate reader. cell of delivery carrier into the cell without vitamin derivatives were also cultured in the same way as additive-free controls and the fluorescence intensity was measured.

The format of data set [4] is physicochemical. As to conditions: for Remaining rate: buffer; for Evaluation results: 0.02 mol/L in purified water, 50° C., one month. The method, then:
APS, APPS, and EPC so that the concentration of each ascorbate derivative is 0.02 mol/L. Dissolve them in purified water and store them at 50° C. for one month to determine their potency in a high performance liquid The starting titers of each substance were measured by chromatography, and the results after one month were used as the starting titer of 100%. If more than 95% of the result was remaining in the material, it is ∘, and if less than 95% or more than 80% of the result was less than 95%, it is […]. […] Sodium ascorbic acid-2-phosphate: APS; Sodium ascorbic acid-2-phosphate-6-palmitate 3: APPS; Potassium tocopheryl ascorbic acid-2-phosphate: EPC; ascorbic acid: AA.

Data set [5] relates to normal human epidermal fibroblasts. Briefly: cell uptake of Rhodamine B from temperature-responsive liposome carriers with different vitamin derivatives. It is filed as cell-based. As to conditions: EPC-added groups set to 100%, liposome carrier with DOPEMP (NIPAA/DMAPAA 5%) Cop, rhodamine 1 μM, 35° C. 1 hour, 40° C. 20 min. The method, then:
The total amount of the next lipid was 20 mg, the molar ratio of (lipid 1,2-diore oil-3-trimethylammonium propane):(total weight of lamella-forming surfactant diore oil phosphatidylethanolamine and DOPEMP (NIPAA/DMAPAA 5%) Cop) was 3:7. Each was dissolved in chloroform. Further, the fluorescent dye Rhodamine B (1 mg) was added and dissolved. The lower limit critical dissolution temperature of DOPEMP (NIPAA/DMAPAA 5%) Cop used in this experiment in water was 40° C. The molar ratio of (dioleoylphosphatidylethanolamine: DOPEMP (NIPAA/DMAPAA) Cop.) added by total weight was 6.5:0.5.
The solution was transferred to an eggplant flask and the solvent was blown off by an evaporator to prepare a lipid film. EPC, APPS, APS and AA (ascorbic acid), which are […] of Vitamin derivatives having different ATG activity and CTS activity (hereinafter abbreviated as ATG-CTS activity), were prepared. To this lipid film, EPC, APPS, APS and AA (5 mg each) dissolved in PBS (1 ml) were added. The lipid film was hydrated and then dispersed by vortexing. After that, sonication was performed for 30 minutes in an ultrasonic bath to reduce the size of the liposome, and then the liposome was passed through a 200 nm filter using an extruder to adjust the size of the liposome. The average particle size of the examples and comparative examples was 111 nm±10 nm. Then, the liposomes were separated and purified by gel filtration. By the above method, a Delivery carrier into cell of the present invention containing an ATG-CTS activator, a temperature-responsive polymer and a hydrocarbon was prepared.
Next, normal human epidermal fibroblasts were cultured in DMEM (low glucose) containing 5% FBS for 24 hours at 37° C. at a density of 5×10^5 cell/well in 6-well plates, and then the medium containing four delivery carrier into the cell (added to achieve a final rhodamine concentration of 1 μM), including the embodiments and comparative examples prepared as described above, was exchanged for each medium and cultured at 35° C. for 1 hour. After that, it was incubated at 40° C. for 20 min, and then at 35° C. for 1 h. It was then washed five times with PBS and immobilized with 4% paraformaldehyde phosphate buffer solution for 20 min, washed twice with PBS again, and the relative concentration of the fluorescent material taken up into the cell was determined by measuring the fluorescence intensity with a fluorescent microplate reader. cell of delivery carrier into the cell without vitamin derivatives were also cultured in the same way as additive-free controls and the fluorescence intensity was measured.

In data set [6] the test system is HMV-II cell. Briefly: Cellular damage assessment (Cell Counting Kit-8). It counts as cell-based. As to conditions: Cell Counting Kit-8, absorbance at 450 nm. As to the method: HMV-II cell were seeded at a concentration of 1×10^5 cell/mL in 500 μL/well on a 6-well plate. After incubation for 24 hours, 200 μM of IBM X, a melanin-producing stimulant, was added. APS was added to 100 μM for each pH-responsive delivery carrier into cell of A-3, B-3, C-3, and D-3. 2 hours later, the cell were washed with PBS, 200 μM of IVMX was added again, and incubated for 70 hours. To this, 10 μL of Cell Counting Kit-8 was added, and the cytotoxicity of sample addition was compared by measuring absorbance at 450 nm after 1 h of incubation.

The test system of data set [7] is HMV-II cell. Description: Melanin production inhibition test. As to conditions: 200 μM, no carrier. It counts as cell-based. As to the method:
Pre-treatment: The following melanin production inhibition tests were performed using A-2, B-2, C-2, and D-2 pH-responsive delivery carrier into the cell (A-3, B-3, C-3, and D-3): HMV-II cell were seeded in 24 well dishes at a concentration of 1×10^5 cell/mL, incubated for 24 hours, and then added 200 μM of IBMX and A-3, B-3, C-3, and D-3 pH-responsive delivery carrier into the cell (A-3, B-3, C-3, and D-3) at an APS concentration of 100 μM. 2 hours later, the cell were washed with PBS, 200 μM of IBMX was added again, and incubated for 70 hours. The cell were then solubilized with 200 μL of NaOH at 1 mol/L, and melanin was extracted and quantified by measuring the absorbance at 405 nm. The melanin production was increased about 3-fold by the addition of IBMX (no carrier for pH-responsive cell delivery). When the amount of melanin produced at this time was assumed to be 100%, the amount of melanin produced by A-3 addition of the invention was 48%, B-3 was 78%, C-3 was 85%, and D-3 was 90%.

A short description of data set [8]: lower critical dissolution temperature in water. It is filed as physicochemical. As to the method:
The lower critical dissolution temperature of the temperature-stimuli-responsive polymer-containing molecules in the present invention in water should be between a temperature close to body temperature and 70° C., which is the maximum temperature for carrier transportation in summer during product distribution (e.g., 35.0 to 70.0° C.). On the other hand, for the temperature-responsive polymer of the present invention, even if the lower critical dissolution temperature is near body temperature, it is easier to suppress cell death after delivery into cells if the temperature is as high as possible. […] In the present invention, the lower critical dissolution temperature of the temperature-responsive polymer in water is measured by differential scanning calorimetry (DSC).
For this reason, the lower critical dissolution temperature of the conventional temperature-stimulus-responsive-polymer containing molecules is preferred to be 37-42° C., which is close to the body temperature. […] In the present invention, the lower critical dissolution temperature of the temperature-stimulus-responsive polymer in water is measured by differential scanning calorimetry (DSC).

For `CCCCCCCC(=O)OC1=C(OCC(O)CO)C(C(O)CO)OC1=O` (stereo not drawn) [OGVC, 3-glyceryl-2-Caprylyl ascorbate], the skin irritation entry in data set [1] is listed as “no skin irritation was observed”.
As for `CCCCCCCCCCCCCCCC(=O)OC[C@H](O)C1OC(=O)C(OP(=O)([O-])[O-])=C1[O-].[Na+].[Na+].[Na+]` (stereo partly drawn) [APPS, Sodium ascorbic acid-2-phosphate-6-palmitate 3], the Evaluation results in data set [2] was “○”. Also, the Remaining rate in data set [2] was found to be 100%; in data set [4], 78%. For the same molecule, the results for the “fluorescence intensity (fluorescent material taken up into the cell)” value (“fluorescence intensity” below) in data set [3] and in data set [5] were 76% and 78%, respectively.
With `CC(C)Cn1c(=O)n(C)c(=O)c2[nH]cnc21` [IBMX], in the data set on HMV-II cell [6], the cytotoxicity result is “cytotoxicity was confirmed”. The “increase of melanin production” value in the data set on HMV-II cell [7] is recorded as “about 3 fold”.
Take `CCCCCCCCCCCCCCCC(=O)OC[C@H](O)[C@H]1OC(=O)C(O)=C1O` [PA, ascorbyl palmitate]: the “fluorescence intensity” value in data set [3] came out at 58%.
As for `CCCCCCCC(=O)OC1=C(OCC(O)CO)C(=O)OC1C(O)CO` (stereo not drawn) [GOVC, 2-glyceryl-3-Caprylyl ascorbate], the skin irritation entry in data set [1] was “no skin irritation was observed”.
Consider `O=C1O[C@H]([C@@H](O)CO)C(O)=C1OP(=O)([O-])[O-].[Na+].[Na+]` [APS, Sodium ascorbic acid-2-phosphate], for which the Remaining rate in data set [2] was 3%; in data set [4] (1 month, 0.02 mol/L), 91%. For the same molecule, in data set [4], the Evaluation results is “Δ”. Moreover, the “fluorescence intensity” value in data set [5] amounted to 49%.
On to `O=C1O[C@H]([C@@H](O)CO)C(O)=C1O` [AA, ascorbic acid, reference compound], for which the Remaining rate amounted to 1% in data set [2] and 56% in data set [4] (1 month, 0.02 mol/L). Also, the “fluorescence intensity” value in data set [5] was 52%.
For the molecule `Cc1c(C)c2c(c(C)c1OP(=O)([O-])OC1=C(O)[C@@H]([C@@H](O)CO)OC1=O)CC[C@@](C)(CCC[C@H](C)CCC[C@H](C)CCCC(C)C)O2.[K+]` [EPC, Potassium tocopheryl ascorbic acid-2-phosphate], the Evaluation results in data set [2] is reported as “Δ”; in data set [4], “○”. For the same molecule, the Remaining rate in data set [2] is 85%; in data set [4], 96%. For the same molecule, the “fluorescence intensity” value in data set [3] and in data set [5] was 100% in each case.
For “Dioleoylephosphatidylethanolamine mercaptopropionyl (isopropylacrylamide/dimethylaminopropylacrylamide 5%) copolymer [DOPEMP (NIPAA/DMAPAA 5%) Cop]”, in data set [8], the “lower critical dissolution temperature in water” value was 40 °C.
